The values that follow come from patent US10280205B2, “Method for treating cancer with an activated T lymphocyte that selectively recognizes a cancer cell consisting of specific peptide” (immatics biotechnologies GmbH, priority 2015, dated 2019).

The subject of one experiment is CD8+ T cells. Description: In vitro T-cell priming assay with aAPCs loaded with peptide/MHC complexes and anti-CD28, multimer staining readout (in vitro immunogenicity). The class given is cell-based, human. As to conditions: for Wells positive [%]: HLA-A*02 restricted peptides. The text has this: In order to obtain information regarding the immunogenicity of the TUMAPs of the present invention, the inventors performed investigations using an in vitro T-cell priming assay based on repeated stimulations of CD8+ T cells with artificial antigen presenting cells (aAPCs) loaded with peptide/MHC complexes and anti-CD28 antibody.
In order to perform in vitro stimulations by artificial antigen presenting cells loaded with peptide-MHC complex (pMHC) and anti-CD28 antibody, the inventors first isolated CD8+ T cells from fresh HLA-A*02 leukapheresis products via positive selection using CD8 microbeads (Miltenyi Biotec, Bergisch-Gladbach, Germany) of healthy donors obtained from the University clinics Mannheim, Germany, after informed consent.
PBMCs and isolated CD8+ lymphocytes were incubated in T-cell medium (TCM) until use consisting of RPMI-Glutamax (Invitrogen, Karlsruhe, Germany) supplemented with 10% heat inactivated human AB serum (PAN-Biotech, Aidenbach, Germany), 100 U/ml Penicillin/100 μg/ml Streptomycin (Cambrex, Cologne, Germany), 1 mM sodium pyruvate (CC Pro, Oberdorla, Germany), 20 μg/ml Gentamycin (Cambrex). 2.5 ng/ml IL-7 (PromoCell, Heidelberg, Germany) and 10 U/ml IL-2 (Novartis Pharma, Nurnberg, Germany) were also added to the TCM at this step.
Generation of pMHC/anti-CD28 coated beads, T-cell stimulations and readout was performed in a highly defined in vitro system using four different pMHC molecules per stimulation condition and 8 different pMHC molecules per readout condition.
The purified co-stimulatory mouse IgG2a anti human CD28 Ab 9.3 (Jung et al., 1987) was chemically biotinylated using Sulfo-N-hydroxysuccinimidobiotin as recommended by the manufacturer (Perbio, Bonn, Germany). Beads used were 5.6 μm diameter streptavidin coated polystyrene particles (Bangs Laboratories, Illinois, USA).
pMHC used for positive and negative control stimulations were A*0201/MLA-001 (peptide […] (SEQ ID NO. 664) from modified Melan-A/MART-1) and A*0201/DDX5-001 ([…] from DDX5, SEQ ID NO. 665), respectively.
800.000 beads/200 μl were coated in 96-well plates in the presence of 4×12.5 ng different biotin-pMHC, washed and 600 ng biotin anti-CD28 were added subsequently in a volume of 200 μl. Stimulations were initiated in 96-well plates by co-incubating […] CD8+ T cells with 2×10^5 washed coated beads in 200 μl TCM supplemented with 5 ng/ml IL-12 (PromoCell) for 3 days at 37° C. Half of the medium was then exchanged by fresh TCM supplemented with 80 U/ml IL-2 and incubating was continued for 4 days at 37° C. This stimulation cycle was performed for a total of three times. For the pMHC multimer readout using 8 different pMHC molecules per condition, a two-dimensional combinatorial coding approach was used as previously described (Andersen et al., 2012) with minor modifications encompassing coupling to 5 different fluorochromes. Finally, multimeric analyses were performed by staining the cells with Live/dead near IR dye (Invitrogen, Karlsruhe, Germany), CD8-FITC antibody clone SK1 (BD, Heidelberg, Germany) and fluorescent pMHC multimers. For analysis, a BD LSRII SORP cytometer equipped with appropriate lasers and filters was used. Peptide specific cells were calculated as percentage of total CD8+ cells. Evaluation of multimeric analysis was done using the FlowJo software (Tree Star, Oreg., USA). In vitro priming of specific multimer+ CD8+ lymphocytes was detected by comparing to negative control stimulations.
Exemplary flow cytometry results after TUMAP-specific multimer staining for two peptides of the invention are shown in FIG. 3 together with corresponding negative controls.

A further experiment addresses HLA-A*02:01 (Homo sapiens, UniProt P04439, D140Y/D185E/D98H/E176V/E277Q/G131W/G231S/I119V/I121R/I166T/I218V/L300P/L318F/N151K/N90K/P208A/P217A/Q86G/Q94H/R138H/R169H/T345S). Description: MHC binding assay: UV-ligand exchange with beta2m ELISA (exchange yield). As to conditions: binding to HLA-A*02:01, β2m ELISA. The gist of the method: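 Exchange yield reflects how much β2m remains bound, measured by ELISA: streptavidin capture of 100-fold diluted monomers, HRP anti-β2m at 37° C. for 1 h, TMB read at 450 nm. Monomers come from UV cleavage of a conditional HLA-A*02:01 ligand in the presence of the candidate peptide.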

For the substance “118 (KLIDNNINV; listed as Homo sapiens) [compound 118]”, the “Wells positive [%]” value in the experiment with CD8+ T cells is given as ““+” (<20% = +)”. The “Peptide exchange (MHC class I binding score, peptide exchange yield)” value (shortened to “Peptide exchange”) in the experiment with HLA-A*02:01 was ““+++” (≥50 = +++)”.

Take “489 (KMWEELPEVV; listed as Homo sapiens) [compound 489]”: in the experiment with CD8+ T cells, the “Wells positive [%]” value is listed as ““+” (<20% = +)”. The “Peptide exchange” value with HLA-A*02:01 is listed as ““+++” (≥50 = +++)”.

In the case of “283 (ALYIGDGYVIHLA; listed as Homo sapiens) [compound 283]”, the “donors (positive donors, in vitro immunogenicity)” value with CD8+ T cells (HLA class I peptides, percentage of positive donors among evaluable) is “+++ (50%-69% = +++)”. Further, the “wells (positive wells, in vitro immunogenicity)” value with CD8+ T cells (HLA class I peptides, percentage of positive wells) is given as “+ (<20% = +)”. Also, the “Peptide exchange” value with HLA-A*02:01 is reported as ““+++” (≥50 = +++)”.

Consider “79 (SLFIGEKAVLL; listed as Homo sapiens) [compound 79]”, for which the “Wells positive [%]” value with CD8+ T cells is on record as ““+” (<20% = +)”. The “Peptide exchange” value with HLA-A*02:01 was ““+++” (≥50 = +++)”.

With “499 (KIFDIDEAEEGV; listed as Homo sapiens) [compound 499]”, in the experiment with CD8+ T cells, the “Wells positive [%]” value is on record as ““+” (<20% = +)”. Further, in the experiment with HLA-A*02:01, the “Peptide exchange” value is given as ““++” (≥20% = ++)”.
